Measured values taken from patent US20030162692A1, “Follicle stimulating hormone stimulated genes and uses thereof” (priority 2000, published 2003).

Tested on: Y-1 (ATCC Accession No. CCL 79) cells
Test: GEM (Gene Expression Microarray) expression profile of treated vs control Y1 cells, Incyte mouse cDNA array
Type: cell-based
Conditions: 16 hours; for number of common genes upregulated by FSH, 024 & forskolin: Y1 cells, FSH 10^-9 M, 024 1 uM, Forskolin 1 uM
Method: A mouse cDNA array from Incyte, Inc. was used to analyze the expression profile of Y-1 (ATCC Accession No. CCL 79) cells. This transcriptional profile analysis led to the identification of the FSH or FSH Mimetic stimulated genes of the invention.
Y1 cells were incubated with Ham's F-10 Nutrient Mixture Media supplemented with glutamine (1%), G418 geneyticin (80 ug/ml), penicillin-streptomycin (1%), fetal horse serum (15%), and fetal bovine serum (2.5%) and grown to confluency. Confluent cells were then exposed to FSH at 10^-9 M (See Table 1) or FSH Mimetic 024 at 1 uM (see Table 3), Forskolin at 1 uM (See Table 4) and all three agents (i.e., FSH at 10^−9 M, FSH Mimetic 024 at 1 uM and Forskolin at 1 uM—See Table 2) for 16 hours. Total RNA was isolated from control or treated cells with ULTRASPEC™ RNA from Biotech Laboratories, Inc. All media and supplements were obtained from Gibco BRL Life Technologies.
The GEM (Gene Expression Microarray) technology uses the following steps to discover differences in gene expression between two messenger RNA (mRNA) samples. Small samples of cDNA were deposited on a glass surface and bonded to the glass. Subsequently, large portions from one half of the DNA's double strands were removed in order to activate the individual elements of the array, preparing them to react and bind to their uniquely matched DNA counterparts in the cells being tested.
Two mRNA samples were prepared and color labeled, since the GEM technology uses a color coding technique to discover the differences in gene expression between two mRNA samples. […]
The two fluorescent probe samples were simultaneously applied to a single microarray, where they competitively react with the arrayed cDNA molecules. […] The intensity of the fluorescence at each array element is proportional to the expression level of that gene in the sample. […] The ratio of the two fluorescent intensities provided a quantitative measurement of the relative gene expression level in the two cell samples. […]

## Follicle Stimulating Hormone [FSH]
FSH at 10^-9 M
  number of genes regulated in Y1 cells: FSH regulats 189 genes in Y1 cells
  number of common genes upregulated by FSH, 024 & forskolin: 64 common genes upregulated by FSH, 024 & forskolin

## C=C[C@@]1(C)CC(=O)[C@]2(O)[C@@]3(C)[C@@H](O)CCC(C)(C)[C@@H]3[C@H](O)[C@H](OC(C)=O)[C@@]2(C)O1 [Forskolin, reference compound]
  number of common genes upregulated by FSH, 024 & forskolin: 64 common genes upregulated by FSH, 024 & forskolin
